Source: patent publication US20110300167A1, “CXCR5 RECEPTOR COMPOUNDS” (priority 2008, published 2011)

Legend:
Type in all cases: cell-based
CXCR5 [1] = target: T1, CXCR5 (Homo sapiens, UniProt P32302); experiment: Chemotaxis assay (Transwell, CXCL13 dose-response, 300.19 cells expressing CXCR5); conditions: 300.19 cells incubated with compound, compared to the vehicle control
T1 sequence (P32302 1-372): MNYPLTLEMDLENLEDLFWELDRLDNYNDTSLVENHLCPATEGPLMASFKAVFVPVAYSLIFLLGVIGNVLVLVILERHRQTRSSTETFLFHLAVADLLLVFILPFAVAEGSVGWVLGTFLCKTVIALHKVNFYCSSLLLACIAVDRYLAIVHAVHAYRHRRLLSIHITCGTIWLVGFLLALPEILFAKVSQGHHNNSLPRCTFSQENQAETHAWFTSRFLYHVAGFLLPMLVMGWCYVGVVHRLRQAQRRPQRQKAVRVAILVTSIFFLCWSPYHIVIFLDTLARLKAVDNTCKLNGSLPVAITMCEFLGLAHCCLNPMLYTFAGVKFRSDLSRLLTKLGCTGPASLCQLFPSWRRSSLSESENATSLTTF
Description: Chemotaxis assays were utilized to determine the effect of compound on the directed migration of cells in response to chemokine. 300.19 cells that express CXCR5 were placed in the upper chamber of a Transwell chemotaxis plate (Corning) and allowed to migrate through a polycarbonate membrane to a lower chamber containing the appropriate receptor-specific ligand. To test for antagonist or potentiating activity, cells were mixed with the desired concentration of compound prior to addition to the upper chamber. Conversely, agonist activity was determined by adding compound in the bottom chamber only without endogenous chemokine. The effect of compound is quantified by several parameters, including the extent of maximum response, the shift of agonist dose-response curves, and the area under the curve. […]
To initiate cell migration, the assembled transwell plate was placed in a 37° C., […] incubator for a specified time interval, typically between 30 and 120 minutes. […] To quantify migrated cells, plates were thawed at 37° C. in a humidified chamber, and then a sample volume was removed from each well and mixed with an equal volume of CyQuant (Invitrogen) working solution in opaque plates. The fluorescence intensity of each well represents the DNA content and is directly proportional to cell number. […]

CXCR5 [2] = target: T1, CXCR5; experiment: β-arrestin assay (DiscoverX eXpress β-arrestin cells expressing CXCR5)
Description: The β-arrestin assays developed by DiscoverX employed herein detect binding of a ligand to the GPCR by directly measuring β-arrestin recruitment to the GPCR independent of G-protein coupling. In this system, β-arrestin is fused to an N-terminal deletion mutant of β-gal (termed the enzyme acceptor of EA) and the GPCR of interest is fused to a smaller (42 amino acids), weakly complementing fragment. In cells that stably express these fusion proteins, ligand stimulation results in the interaction of β-arrestin and the tagged GPCR, forcing the complementation of the two β-gal fragments and resulting in the formation of a functional enzyme that converts substrate to detectable signal. In practice, eXpress β-arrestin cells expressing the receptor of interest are incubated with either compound alone (agonist mode), or compound plus native ligand (allosteric mode). A chemiluminescent substrate is then added to determine the extent of enzyme activity, and by inference, arrestin recruitment to GPCR.
The β-arrestin assays for CXCR5 Compound 14 were run in both agonist and allosteric modes. In agonist mode, the CXCR5-expressing eXpress β-arrestin cells were incubated with a dose curve of CXCR5 Compound 14 in the absence of CXCL13. […] In allosteric mode, Compound 14 is co-incubated with CXCL13, and the CXCR5 response of the eXpress cells is quantified.

CXCR5 [3] = target: T1, CXCR5; experiment: HTRF cAMP assay, inhibition of forskolin-stimulated cAMP production in HEK293 cells expressing hCXCR5; set-up: expressed in transfected cells; host or cells: HEK293; conditions: HEK293 cells expressing hCXCR5, 2 doses of compound (3 uM, 0.3 uM)
Description: HTRF (homogeneous time resolved fluorescence) is a technology developed by Cisbio Bioassays based on TR-FRET (time-resolved fluorescence resonance energy transfer). Cisbio Bioassays has developed a wide selection of HTRF-based assays compatible with whole cells, thereby enabling functional assays run under more physiological conditions. cAMP kits are based on a competitive immunoassay using cryptate-labeled anti-cAMP antibody and d2-labeled cAMP. This assay allows the measurement of increase in intracellular cAMP upon Gs-coupled receptor activation as well as decrease in forskolin stimulated increase in cAMP upon Gi-coupled receptor activation. The IP-One assays are competitive immunoassays that use cryptate-labeled anti-IP1 monoclonal antibody and d2-labeled IP1. IP1 is a relatively stable downstream metabolite of IP3, and accumulates in cells following Gq receptor activation.
A cAMP assay was performed in the presence of Compound 14 to assess the activation of CXCR5 by the production of cAMP. HEK293 cells expressing hCXCR5 were incubated with CXCL13, and the inhibition of forskolin-stimulated cAMP production was quantified in cells in the absence and presence of Compound 14. […] This response is indicative of a reduction of decrease in forskolin-stimulated cAMP due to enhanced CXCR5 (Gi) activation.

shift of the bell-shaped ligand dose-response curve (chemotaxis) (CXCR5 [1]; CXCL13 dose-response): leftward shift
AUC of the bell-shaped ligand dose-response curve (chemotaxis) (CXCR5 [1]): increase
β-arrestin recruitment response, agonist mode (CXCR5 [2]; dose curve of compound in the absence of CXCL13): lack of response
Substance: Pal-HAVHAYRHRRLLS-amide [Compound 14]
β-arrestin recruitment response curve, allosteric mode (CXCR5 [2]; compound co-incubated with CXCL13): left-shifted and higher maximal response curve
shift of cAMP responses to CXCL13 (inhibition of forskolin-stimulated cAMP production) (CXCR5 [3]): shifted leftward in a dose-dependent manner
